Assay results published in US20240294508A1, “RIP1 MODULATORS INCLUDING AZETIDINE CYCLIC UREAS, PREPARATIONS, AND USES THEREOF” (SIRONAX LTD., priority 2021, published 2024).

Test system: HT-29 cells
Assay: HT29 cells 0FBS assay in vitro: TNF-α/SMAC mimetic/zVAD-FMK induced necroptosis, CellTiter-Glo cell viability (RIP1 inhibitory activity)
Assay type: cell-based
Conditions: Homo sapiens, FBS free medium, TNF-α (10 ng/ml) + SMAC mimetic (6 uM) + zVAD-FMK (10 μM), 20 hours, geometric mean EC50
How it was run: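 Luminescent ATP read-out (CellTiter-Glo) gave viability of HT-29 cells after 20 h at 37° C in serum-free medium containing compound and a necroptosis cocktail of 10 ng/ml TNF-α, 6 uM SMAC mimetic and 10 μM zVAD-FMK. EC50s are geometric means of 10-point curves run in duplicate.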

Row | Structure (SMILES) | EC50 [nM]
1 | Cn1ncc(C#N)c1-c1ncc(F)c(OC2CN(C(=O)N3N=CC[C@H]3c3cc(F)cc(C#N)c3)C2)n1 [Compound 8, (S)-5-(4-((1-(5-(3-cyano-5-fluorophenyl)-4,5-dihydro-1H-pyrazole-1-carbonyl)azetidin-3-yl)oxy)-5-fluoropyrimidin-2-yl)-1-methyl-1H-pyrazole-4-carbonitrile] | 0.1 to 100
2 | Cn1cccc(-c2cc(OC3CN(C(=O)N4N=CC[C@H]4c4cc(F)cc(F)c4)C3)c(F)cn2)c1=O (stereo in doubt) [Compound 169, 4-((1-(5-(3,5-difluorophenyl)-4,5-dihydro-1H-pyrazole-1-carbonyl)azetidin-3-yl)oxy)-5-fluoro-1′-methyl-[2,3′-bipyridin]-2′(1′H)-one] | 100 to 1000
3 | Cc1c(N)nn(C)c1-c1ccc(F)c(OC2CN(C(=O)N3N=CC[C@H]3c3cncc(F)c3)C2)n1 [Compound 67, (S)-(3-((6-(3-amino-1,4-dimethyl-1H-pyrazol-5-yl)-3-fluoropyridin-2-yl)oxy)azetidin-1-yl)(5-(5-fluoropyridin-3-yl)-4,5-dihydro-1H-pyrazol-1-yl)methanone] | 0.1 to 100
4 | Cc1ncc(C2CC=NN2C(=O)N2CC(Oc3cc(-c4c(C)c(N)nn4C)ncc3F)C2)s1 (stereo not drawn) [Compound 107, (3-((2-(3-amino-1,4-dimethyl-1H-pyrazol-5-yl)-5-fluoropyridin-4-yl)oxy)azetidin-1-yl)(5-(2-methylthiazol-5-yl)-4,5-dihydro-1H-pyrazol-1-yl) methanone] | 0.1 to 100
5 | Cn1ncc(C#N)c1-c1ccc(F)c(OC2CN(C(=O)N3N=CC[C@H]3c3cncc(C#N)c3)C2)n1 [Compound 41, (S)-5-(1-(3-((6-(4-cyano-1-methyl-1H-pyrazol-5-yl)-3-fluoropyridin-2-yl)oxy)azetidine-1-carbonyl)-4,5-dihydro-1H-pyrazol-5-yl)nicotinonitrile] | 0.1 to 100
6 | Cc1nc(C2CC=NN2C(=O)N2CC(Oc3cc(-c4c(C)cnn4C)ncc3Cl)C2)cs1 (stereo not drawn) [Compound 127, (3-((5-chloro-2-(1,4-dimethyl-1H-pyrazol-5-yl)pyridin-4-yl)oxy)azetidin-1-yl)(5-(2-methylthiazol-4-yl)-4,5-dihydro-1H-pyrazol-1-yl)methanone] | 1000 to 10000
7 | Cc1c(C(N)=O)nn(C)c1-c1ccc(F)c(OC2CN(C(=O)N3N=CC[C@H]3c3cc(F)cc(C#N)c3)C2)n1 [Compound 59, (S)-5-(6-((1-(5-(3-cyano-5-fluorophenyl)-4,5-dihydro-1H-pyrazole-1-carbonyl)azetidin-3-yl)oxy)-5-fluoropyridin-2-yl)-1,4-dimethyl-1H-pyrazole-3-carboxamide] | 0.1 to 100
8 | Cc1nn(-c2cc(OC3CN(C(=O)N4N=CC[C@H]4c4cccc(F)c4)C3)c(F)cn2)c(C)c1C(=O)NC1COC1 [Compound 77, (S)-1-(5-fluoro-4-((1-(5-(3-fluorophenyl)-4,5-dihydro-1H-pyrazole-1-carbonyl)azetidin-3-yl)oxy)pyridin-2-yl)-3,5-dimethyl-N-(oxetan-3-yl)-1H-pyrazole-4-carboxamide] | 0.1 to 100
9 | Cc1c(Cl)nn(C)c1-c1cc(OC2CN(C(=O)N3N=CC[C@H]3c3cc(F)cc(C#N)c3)C2)c(F)cn1 [Compound 50, (S)-3-(1-(3-((2-(3-chloro-1,4-dimethyl-1H-pyrazol-5-yl)-5-fluoropyridin-4-yl)oxy)azetidine-1-carbonyl)-4,5-dihydro-1H-pyrazol-5-yl)-5-fluoro benzonitrile] | 0.1 to 100
10 | Cc1nn(-c2cc(OC3CN(C(=O)N4N=CC[C@H]4c4cc(F)cc(C#N)c4)C3)c(F)cn2)c(C)c1C(=O)NC1COC1 [Compound 85, (S)-1-(4-((1-(5-(3-cyano-5-fluorophenyl)-4,5-dihydro-1H-pyrazole-1-carbonyl)azetidin-3-yl)oxy)-5-fluoropyridin-2-yl)-3,5-dimethyl-N-(oxetan-3-yl)-1H-pyrazole-4-carboxamide] | 0.1 to 100
11 | Cc1ncsc1-c1cc(OC2CN(C(=O)N3N=CC[C@H]3c3cncc(F)c3)C2)c(F)cn1 [Compound 64, (S)-(3-((5-fluoro-2-(4-methylthiazol-5-yl)pyridin-4-yl)oxy)azetidin-1-yl)(5-(5-fluoropyridin-3-yl)-4,5-dihydro-1H-pyrazol-1-yl)methanone] | 0.1 to 100
12 | Cc1cnn(C)c1-c1ncc(F)c(OC2CN(C(=O)N3N=CC[C@H]3c3cc(F)cc(C#N)c3)C2)n1 [Compound 25, (S)-3-(1-(3-((2-(1,4-dimethyl-1H-pyrazol-5-yl)-5-fluoropyrimidin-4-yl)oxy)azetidine-1-carbonyl)-4,5-dihydro-1H-pyrazol-5-yl)-5-fluorobenzonitrile] | 0.1 to 100
13 | Cn1ncc(C#N)c1-c1ccc(F)c(OC2CN(C(=O)N3N=CC[C@H]3c3cc(F)cc(C#N)c3)C2)n1 [Compound 40, (S)-5-(6-((1-(5-(3-cyano-5-fluorophenyl)-4,5-dihydro-1H-pyrazole-1-carbonyl)azetidin-3-yl)oxy)-5-fluoropyridin-2-yl)-1-methyl-1H-pyrazole-4-carbonitrile] | 0.1 to 100
14 | Cc1ncc([C@@H]2CC=NN2C(=O)N2CC(Oc3cc(-c4c(C)cnn4C)ncc3F)C2)s1 [Compound 108, (S)-(3-((2-(1,4-dimethyl-1H-pyrazol-5-yl)-5-fluoropyridin-4-yl)oxy)azetidin-1-yl)(5-(2-methylthiazol-5-yl)-4,5-dihydro-1H-pyrazol-1-yl)methanone] | 0.1 to 100
15 | Cc1nn(-c2cc(OC3CN(C(=O)N4N=CC[C@@H]4c4cc(F)cc(F)c4F)C3)c(F)cn2)c(C)c1C(=O)O [Compound 105, (R)-1-(5-fluoro-4-((1-(5-(2,3,5-trifluorophenyl)-4,5-dihydro-1H-pyrazole-1-carbonyl)azetidin-3-yl)oxy)pyridin-2-yl)-3,5-dimethyl-1H-pyrazole-4-carboxylic acid] | 1000 to 10000
16 | Cc1c(N)nn(C)c1-c1cc(OC2CN(C(=O)N3N=CCC3c3cc(F)cc(F)c3F)C2)c(F)cn1 (stereo not drawn) [Compound 115, (3-((2-(3-amino-1,4-dimethyl-1H-pyrazol-5-yl)-5-fluoropyridin-4-yl)oxy)azetidin-1-yl)(5-(2,3,5-trifluorophenyl)-4,5-dihydro-1H-pyrazol-1-yl) methanone] | 0.1 to 100
17 | Cc1cnn(C)c1-c1csc(OC2CN(C(=O)N3N=CC[C@H]3c3cc(F)cc(F)c3)C2)n1 [Compound 146, (S)-(5-(3,5-difluorophenyl)-4,5-dihydro-1H-pyrazol-1-yl)(3-((4-(1,4-dimethyl-1H-pyrazol-5-yl)thiazol-2-yl)oxy)azetidin-1-yl)methanone] | 0.1 to 100
18 | Cn1ncc(Cl)c1-c1cc(OC2CN(C(=O)N3N=CC[C@H]3c3cncc(C#N)c3)C2)c(F)cn1 [Compound 44] | 0.1 to 100
19 | Cc1c(N)nn(C)c1-c1cc(OC2CN(C(=O)N3N=CC[C@H]3c3cc(F)cc(C#N)c3)C2)c(F)cn1 [Compound 49, (S)-3-(1-(3-((2-(3-amino-1,4-dimethyl-1H-pyrazol-5-yl)-5-fluoropyridin-4-yl)oxy)azetidine-1-carbonyl)-4,5-dihydro-1H-pyrazol-5-yl)-5-fluoro benzonitrile] | 0.1 to 100
20 | Cn1nccc1-c1csc(OC2CN(C(=O)N3N=CC[C@H]3c3cc(F)cc(F)c3)C2)n1 [Compound 147, (S)-(5-(3,5-difluorophenyl)-4,5-dihydro-1H-pyrazol-1-yl)(3-((4-(1-methyl-1H-pyrazol-5-yl)thiazol-2-yl)oxy)azetidin-1-yl)methanone] | 0.1 to 100
21 | Cn1ncc(Cl)c1-c1cc(OC2CN(C(=O)N3N=CC[C@H]3c3cc(F)cc(C#N)c3)C2)c(F)cn1 [Compound 6, (S)-3-(1-(3-((2-(4-chloro-1-methyl-1H-pyrazol-5-yl)-5-fluoropyridin-4-yl)oxy)azetidine-1-carbonyl)-4,5-dihydro-1H-pyrazol-5-yl)-5-fluorobenzonitrile] | 0.1 to 100
22 | Cc1nn(-c2cc(OC3CN(C(=O)N4N=CC[C@H]4c4cc(F)cc(F)c4F)C3)c(F)cn2)c(C)c1C(N)=O [Compound 102, (S)-1-(5-fluoro-4-((1-(5-(2,3,5-trifluorophenyl)-4,5-dihydro-1H-pyrazole-1-carbonyl)azetidin-3-yl)oxy)pyridin-2-yl)-3,5-dimethyl-1H-pyrazole-4-carboxamide] | 0.1 to 100
23 | Cc1nn(-c2cc(OC3CN(C(=O)N4N=CC[C@H]4c4cc(F)cc(F)c4)C3)c(Cl)cn2)c(C)c1C(N)=O [Compound 160, (S)-1-(5-chloro-4-((1-(5-(3,5-difluorophenyl)-4,5-dihydro-1H-pyrazole-1-carbonyl)azetidin-3-yl)oxy)pyridin-2-yl)-3,5-dimethyl-1H-pyrazole-4-carboxamide] | 0.1 to 100
24 | Cc1nc(C2CC=NN2C(=O)N2CC(Oc3nc(-c4c(C)cnn4C)c(F)cc3F)C2)cs1 (stereo not drawn) [Compound 122, (3-((6-(1,4-dimethyl-1H-pyrazol-5-yl)-3,5-difluoropyridin-2-yl)oxy)azetidin-1-yl)(5-(2-methylthiazol-4-yl)-4,5-dihydro-11H-pyrazol-1-yl)methanone] | 0.1 to 100
25 | Cc1cnn(C)c1-c1cc(OC2CN(C(=O)N3N=CCC3c3nccs3)C2)c(F)cn1 (stereo not drawn) [Compound 92, (3-((2-(1,4-dimethyl-1H-pyrazol-5-yl)-5-fluoropyridin-4-yl)oxy)azetidin-1-yl)(5-(thiazol-2-yl)-4,5-dihydro-1H-pyrazol-1-yl)methanone] | 0.1 to 100
26 | Cc1nn(-c2cc(OC3CN(C(=O)N4N=CC[C@H]4c4cccc(F)c4)C3)c(F)cn2)c(C)c1C(=O)O [Compound 82, (S)-1-(5-fluoro-4-((1-(5-(3-fluorophenyl)-4,5-dihydro-1H-pyrazole-1-carbonyl)azetidin-3-yl)oxy)pyridin-2-yl)-3,5-dimethyl-1H-pyrazole-4-carb oxylic acid] | 0.1 to 100
27 | Cc1cnn(C)c1-c1cc(OC2CN(C(=O)N3N=CCC3c3ncccc3Cl)C2)c(F)cn1 (stereo not drawn) [Compound 93, (5-(3-chloropyridin-2-yl)-4,5-dihydro-1H-pyrazol-1-yl)(3-((2-(1,4-dimethyl-1H-pyrazol-5-yl)-5-fluoropyridin-4-yl)oxy)azetidin-1-yl)methanone] | 0.1 to 100
